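Growth conditions: 96-well plates. Treatment: test compound, 48 hours, 5 concentrations. Analysis: linear interpolation between bracketing concentrations; unreached endpoints set to highest concentration. GI50: concentration for 50% inhibition of growth.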 Activity calls are given as the source filed them. Cut-off read from the data, not from the text of the source: active = GI50 up to about 1.1 µM and inactive = higher.
Experiments:
Assay in all cases: NCI tumour cell line growth inhibition, 48 h
NCI-H226 = system: NCI-H226
HCT-15 = system: HCT-15
T47D = system: T47D
SNB-19 = system: SNB-19
OVCAR-5 = system: OVCAR-5
COLO 205 = system: COLO 205
SNB-75 = system: SNB-75
OVCAR-4 = system: OVCAR-4
MDA-N = system: MDA-N
MOLT-4 = system: MOLT-4
NCI/ADR-RES = system: NCI/ADR-RES
IGROV-1 = system: IGROV-1
SK-MEL-2 = system: SK-MEL-2
K562 = system: K562
OVCAR-3 = system: OVCAR-3
Hs-578T = system: Hs-578T
CAKI-1 = system: CAKI-1
HOP-62 = system: HOP-62
MCF7 = system: MCF7
KM12 = system: KM12
NCI-H460 = system: NCI-H460
SN12C = system: SN12C
MDA-MB-231 = system: MDA-MB-231
SK-MEL-28 = system: SK-MEL-28
U-251 = system: U-251
UACC-257 = system: UACC-257
SF-539 = system: SF-539
HL-60 = system: HL-60
CCRF-CEM = system: CCRF-CEM
A498 = system: A498
RPMI-8226 = system: RPMI-8226
EKVX = system: EKVX
SK-MEL-5 = system: SK-MEL-5
HCT-116 = system: HCT-116
A549 = system: A549
786-0 = system: 786-0
MDA-MB-435 = system: MDA-MB-435
ACHN = system: ACHN
SF-295 = system: SF-295
SF-268 = system: SF-268
SR = system: SR
UO-31 = system: UO-31
DU-145 = system: DU-145
BT-549 = system: BT-549
M14 = system: M14
LOX IMVI = system: LOX IMVI
Malme-3M = system: Malme-3M
NCI-H522 = system: NCI-H522
TK-10 = system: TK-10
HOP-92 = system: HOP-92
OVCAR-8 = system: OVCAR-8
PC-3 = system: PC-3
HT-29 = system: HT-29
SK-OV-3 = system: SK-OV-3
RXF 393 = system: RXF 393
UACC-62 = system: UACC-62
SW-620 = system: SW-620
NCI-H23 = system: NCI-H23

CC(C)(C)c1cc(C(C)(C)C)c2sc(=O)oc2c1O
GI50 (NCI-H226): 20.2 µM (inactive) | GI50 (HCT-15): 12.4 µM | GI50 (T47D): 6.14 µM (inactive) | GI50 (SNB-19): 17.3 µM (inactive) | GI50 (OVCAR-5): 18.5 µM (inactive) | GI50 (COLO 205): 18.8 µM (inactive) | GI50 (SNB-75): 13.7 µM (inactive) | GI50 (OVCAR-4): 13.6 µM (inactive) | GI50 (MDA-N): 13.5 µM (inactive) | GI50 (MOLT-4): 8.26 µM (inactive) | GI50 (NCI/ADR-RES): 16.3 µM (inactive) | GI50 (IGROV-1): 14.2 µM (inactive) | GI50 (SK-MEL-2): 15.5 µM (inactive) | GI50 (K562): 10.1 µM (inactive) | GI50 (OVCAR-3): 11.8 µM (inactive) | GI50 (Hs-578T): 16.4 µM (inactive) | GI50 (CAKI-1): 12.4 µM (inactive) | GI50 (HOP-62): 17 µM (inactive) | GI50 (MCF7): 12.6 µM (inactive) | GI50 (KM12): 14.1 µM (inactive) | GI50 (NCI-H460): 5.61 µM (inactive) | GI50 (SN12C): 12.4 µM (inactive) | GI50 (MDA-MB-231): 18.4 µM (inactive) | GI50 (SK-MEL-28): 16.3 µM (inactive) | GI50 (U-251): 14.2 µM (inactive) | GI50 (UACC-257): 5.71 µM (inactive) | GI50 (SF-539): 16.1 µM (inactive) | GI50 (HL-60): 5.6 µM (inactive) | GI50 (CCRF-CEM): 18.8 µM (inactive) | GI50 (A498): 13.7 µM (inactive) | GI50 (RPMI-8226): 21.3 µM (inactive) | GI50 (EKVX): 15 µM (inactive) | GI50 (SK-MEL-5): 14.4 µM (inactive) | GI50 (HCT-116): 12.9 µM (inactive) | GI50 (A549): 13.2 µM (inactive) | GI50 (786-0): 16.4 µM (inactive) | GI50 (MDA-MB-435): 12.4 µM (inactive) | GI50 (ACHN): 12.1 µM (inactive) | GI50 (SF-295): 11.4 µM (inactive) | GI50 (SF-268): 13.6 µM (inactive) | GI50 (SR): 4.98 µM (inactive) | GI50 (UO-31): 11.6 µM (inactive) | GI50 (DU-145): 17.1 µM (inactive) | GI50 (BT-549): 18.7 µM (inactive) | GI50 (M14): 17.5 µM (inactive) | GI50 (LOX IMVI): 14 µM (inactive) | GI50 (Malme-3M): 16.5 µM (inactive) | GI50 (NCI-H522): 13.7 µM (inactive) | GI50 (TK-10): 11.8 µM (inactive) | GI50 (HOP-92): 16.8 µM (inactive) | GI50 (OVCAR-8): 16.3 µM (inactive) | GI50 (PC-3): 14.7 µM (inactive) | GI50 (HT-29): 17.4 µM (inactive) | GI50 (SK-OV-3): 19.5 µM (inactive) | GI50 (RXF 393): 11.9 µM (inactive)

Cc1cc(OCc2nc(N)nc(N)c2-c2ccc(Cl)c(Cl)c2)ccc1[N+](=O)[O-]
GI50 (NCI-H226): 8.67 µM (inactive) | GI50 (HCT-15): 0.0893 µM | GI50 (T47D): 2.44 µM (inactive) | GI50 (SNB-19): 0.743 µM (active) | GI50 (UACC-62): 0.0585 µM (active) | GI50 (OVCAR-5): 0.45 µM (active) | GI50 (COLO 205): 0.705 µM (active) | GI50 (SNB-75): 2.1 µM (inactive) | GI50 (OVCAR-4): 2.19 µM (inactive) | GI50 (MDA-N): 0.0776 µM (active) | GI50 (MOLT-4): 0.0933 µM (active) | GI50 (NCI/ADR-RES): 0.404 µM (active) | GI50 (IGROV-1): 0.0723 µM (active) | GI50 (SK-MEL-2): 1.41 µM (inactive) | GI50 (K562): 0.0255 µM (active) | GI50 (OVCAR-3): 0.282 µM (active) | GI50 (Hs-578T): 12.2 µM (inactive) | GI50 (CAKI-1): 0.558 µM (active) | GI50 (HOP-62): 0.379 µM (active) | GI50 (MCF7): 0.262 µM (active) | GI50 (KM12): 0.692 µM (active) | GI50 (NCI-H460): 0.0462 µM (active) | GI50 (SN12C): 0.726 µM (active) | GI50 (MDA-MB-231): 0.384 µM (active) | GI50 (SK-MEL-28): 0.531 µM (active) | GI50 (U-251): 0.0889 µM (active) | GI50 (UACC-257): 0.0451 µM (active) | GI50 (SF-539): 0.451 µM (active) | GI50 (HL-60): 0.356 µM (active) | GI50 (CCRF-CEM): 0.0235 µM (active) | GI50 (A498): 0.103 µM (active) | GI50 (RPMI-8226): 1.46 µM (inactive) | GI50 (SW-620): 0.235 µM (active) | GI50 (EKVX): 0.953 µM (active) | GI50 (SK-MEL-5): 0.224 µM (active) | GI50 (HCT-116): 0.0502 µM (active) | GI50 (A549): 0.0352 µM (active) | GI50 (786-0): 0.104 µM (active) | GI50 (MDA-MB-435): 0.0721 µM (active) | GI50 (ACHN): 0.0746 µM (active) | GI50 (SF-295): 0.0678 µM (active) | GI50 (SF-268): 0.771 µM (active) | GI50 (SR): 0.0237 µM (active) | GI50 (UO-31): 0.791 µM (active) | GI50 (DU-145): 0.582 µM (active) | GI50 (BT-549): 1.03 µM (active) | GI50 (M14): 0.104 µM (active) | GI50 (LOX IMVI): 0.0818 µM (active) | GI50 (Malme-3M): 2.59 µM (inactive) | GI50 (NCI-H23): 0.141 µM (active) | GI50 (NCI-H522): 0.893 µM (active) | GI50 (TK-10): 0.401 µM (active) | GI50 (HOP-92): 4.92 µM (inactive) | GI50 (OVCAR-8): 0.556 µM (active) | GI50 (PC-3): 0.467 µM (active) | GI50 (HT-29): 0.0927 µM (active) | GI50 (SK-OV-3): 3.01 µM (inactive) | GI50 (RXF 393): 0.794 µM (active)

NC(=O)/C(=C\c1ccncc1)c1cccc2ccccc12
GI50 (NCI-H226): 38 µM (inactive) | GI50 (HCT-15): > 100 µM | GI50 (T47D): > 100 µM (inactive) | GI50 (SNB-19): > 100 µM (inactive) | GI50 (UACC-62): 25.3 µM (inactive) | GI50 (OVCAR-5): > 100 µM (inactive) | GI50 (COLO 205): 50.5 µM (inactive) | GI50 (SNB-75): > 100 µM (inactive) | GI50 (OVCAR-4): > 100 µM (inactive) | GI50 (MDA-N): 43.1 µM (inactive) | GI50 (MOLT-4): > 100 µM (inactive) | GI50 (NCI/ADR-RES): > 100 µM (inactive) | GI50 (IGROV-1): > 100 µM (inactive) | GI50 (SK-MEL-2): > 100 µM (inactive) | GI50 (K562): > 100 µM (inactive) | GI50 (OVCAR-3): > 100 µM (inactive) | GI50 (Hs-578T): > 100 µM (inactive) | GI50 (CAKI-1): > 100 µM (inactive) | GI50 (HOP-62): > 100 µM (inactive) | GI50 (MCF7): > 100 µM (inactive) | GI50 (KM12): > 100 µM (inactive) | GI50 (NCI-H460): 45.1 µM (inactive) | GI50 (SN12C): 34.6 µM (inactive) | GI50 (MDA-MB-231): > 100 µM (inactive) | GI50 (SK-MEL-28): > 100 µM (inactive) | GI50 (U-251): > 100 µM (inactive) | GI50 (UACC-257): < 0.01 µM (active) | GI50 (SF-539): > 100 µM (inactive) | GI50 (HL-60): > 100 µM (inactive) | GI50 (CCRF-CEM): > 100 µM (inactive) | GI50 (RPMI-8226): > 100 µM (inactive) | GI50 (SW-620): > 100 µM (inactive) | GI50 (EKVX): > 100 µM (inactive) | GI50 (SK-MEL-5): 56.9 µM (inactive) | GI50 (HCT-116): > 100 µM (inactive) | GI50 (A549): > 100 µM (inactive) | GI50 (786-0): > 100 µM (inactive) | GI50 (MDA-MB-435): > 100 µM (inactive) | GI50 (ACHN): > 100 µM (inactive) | GI50 (SF-295): > 100 µM (inactive) | GI50 (SF-268): > 100 µM (inactive) | GI50 (SR): 53.3 µM (inactive) | GI50 (UO-31): > 100 µM (inactive) | GI50 (DU-145): 67.8 µM (inactive) | GI50 (BT-549): > 100 µM (inactive) | GI50 (M14): 55.1 µM (inactive) | GI50 (LOX IMVI): > 100 µM (inactive) | GI50 (Malme-3M): > 100 µM (inactive) | GI50 (NCI-H23): 91.6 µM (inactive) | GI50 (NCI-H522): > 100 µM (inactive) | GI50 (TK-10): > 100 µM (inactive) | GI50 (HOP-92): > 100 µM (inactive) | GI50 (OVCAR-8): > 100 µM (inactive) | GI50 (PC-3): > 100 µM (inactive) | GI50 (HT-29): > 100 µM (inactive) | GI50 (SK-OV-3): > 100 µM (inactive) | GI50 (RXF 393): > 100 µM (inactive)
